Laboratory results from US9758505B2, “3-(indol-3-yl)-pyridine derivatives, pharmaceutical compositions and methods for use” (ITEOS THERAPEUTICS, priority 2014, dated 2017).
Where a name gives a salt, the structure may show the parent alone.

Key:
human TDO2 [1] = molecular target: T1, human TDO2 (Homo sapiens (Human), UniProt P48775); assay: Cellular assay for TDO2 activity, hTDO2-overexpressing P815 cells; format: cell-based; conditions: murine mastocytoma P815 cells overexpressing hTDO2, overnight incubation, kynurenine in supernatant
Description: The compounds of Formula I inhibit the activity of human TDO2 in cells.
The assay (adapted from Pilotte L et al., Proc Natl Acad Sci USA, 2012, 109(7), 2497-502) was performed in 96-well flat bottom plates seeded with murine mastocytoma P815 cells overexpressing hTDO2 (prepared as described in Pilotte et al., PNAS, 2012, 109(7), 2497-2502), at a concentration of 5×10^4 cells/well in a final volume of 200 μL. To determine TDO or IDO activity, the cells were incubated overnight at 37° C. at 5% CO2 in IMDM (Invitrogen) supplemented with 2% FBS and 2% penicillin/streptomycin in the presence of the compounds of the present invention, at different concentrations. The cells may be obtained from the American Type Cuylture Collecion [ATCC® TIB-64™ or commercially, e.g., from Sigma-Aldrich or Life Technologies.]
(§1) The plates were then centrifuged 5 min at 1000 rpm, and 100 μL of the supernatant were collected in a conical plate, 30 uL of TCA 30% were added and a further centrifugated at 3000×g for 10 minutes. 100 μL of the supernatant were collected in a flat bottomed plate and 100 μL of 2% (w/v) 4-(dimethylamino)-benzaldehyde in acetic acid and incubated for 5 min at room temperature. Kynurenine concentrations were determined by measuring the absorbance at 480 nm. A standard curve was made with pure kynurenine. The TDO activity was measured as described above using ten serial concentrations of the compounds of the present invention. Data were fitted using the Prism™ software (GraphPad Software, Inc.) using standard software configurations.

human TDO2 [2] = molecular target: T1, human TDO2; assay: Assay for TDO2 enzymatic activity determination; format: biochemical; conditions: human recombinant TDO2, L-Trp 1 mM, kynurenine absorbance at 480 nm
Description: The compounds of formula I inhibit the enzymatic activity of human TDO2.
To measure the TDO2 activity, the procedure described in Dolusic et al. J. Med. Chem.; 2011, 54, […] was adapted: the reaction mixture contained (final concentrations) potassium phosphate buffer (50 mM, pH 7.5), ascorbic acid (0.25 M), methylene blue (0.125 μM), catalase (40 units/mL, from bovine liver, Sigma), and human recombinant TDO2 enzyme (prepared as described in Dolusic et al. J. Med. Chem.; 2011, 54, 5320-5334; 0.9 μg) without or with the compounds of the present invention at the indicated concentrations (total volume 112.5 μL). The reaction was initiated by the addition of 37.5 μL of L-Trp (final concentration 1 mM) at room temperature. The reaction was conducted at room temperature during one hour and stopped by the addition of 30 μL of 30% (w/v) trichloroacetic acid.
To convert N-formylkynurenine into kynurenine, the reaction mixture was incubated at 65° C. for 30 min. Then 150 μL of the reaction mixture was mixed with 120 μL of 2.5% (w/v) 4-(dimethylamino)-benzaldehyde in acetic acid and incubated for 5 min at room temperature. Kynurenine concentrations were determined by measuring the absorbance at 480 nm. A standard curve was made with pure kynurenine. The TDO activity was measured as described above using ten serial concentrations of the compounds of the present invention. Data were fitted using the Prism™ software (GraphPad Software, Inc.) using standard software configurations.

human TDO2 [3] = molecular target: T1, human TDO2; assay: Cellular assay for TDO2 activity, A172 cells naturally expressing hTDO2; format: cell-based; conditions: human glioblastoma A172 cells, overnight incubation, kynurenine in supernatant
Description: A172 is a cell line derived from human brain glioblastoma cells.
To determine TDO, the cells were incubated overnight at 37° C. at 5% CO2 in IMDM (Invitrogen) supplemented with 2% FBS and 2% penicillin/streptomycin in the presence of the compounds of the present invention, at different concentrations.
as §1

T1 sequence (P48775 whole entry): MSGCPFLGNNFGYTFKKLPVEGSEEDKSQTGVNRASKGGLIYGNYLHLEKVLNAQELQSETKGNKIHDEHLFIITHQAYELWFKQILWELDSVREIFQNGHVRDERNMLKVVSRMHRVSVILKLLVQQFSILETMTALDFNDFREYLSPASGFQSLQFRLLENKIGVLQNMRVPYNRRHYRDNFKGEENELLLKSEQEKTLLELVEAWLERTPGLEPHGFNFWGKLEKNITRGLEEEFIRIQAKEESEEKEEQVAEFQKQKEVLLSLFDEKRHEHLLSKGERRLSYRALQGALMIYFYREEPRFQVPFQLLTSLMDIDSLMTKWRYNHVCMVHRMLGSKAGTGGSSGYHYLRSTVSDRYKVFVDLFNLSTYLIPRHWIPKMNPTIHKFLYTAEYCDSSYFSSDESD

| SMILES | IC50 (human TDO2 [1]) [nM] | IC50 (human TDO2 [2]) [nM] | IC50 (human TDO2 [3]) [nM] |
| --- | --- | --- | --- |
| Cc1ccncc1-c1c[nH]c2cc(F)ccc12 [Example 46, 6-fluoro-3-(4-methylpyridin-3-yl)-1H-indole] | 670 | 13000 | – |
| NCC(=O)Nc1ccc(-c2c[nH]c3cc(F)ccc23)cn1 [Example 39, 2-amino-N-(5-(6-fluoro-1H-indol-3-yl)pyridin-2-yl)acetamide] | 350 | – | – |
| O=C(O)CNc1ccc(-c2c[nH]c3cc(F)ccc23)cn1 [Example 30, 2-(5-(6-fluoro-1H-indol-3-yl)pyridin-2-ylamino)acetic acid] | 1500 | 1600 | – |
| NCC(=O)NCCNc1ccc(-c2c[nH]c3cc(F)ccc23)cn1 [Example 51, 2-amino-N-(2-((5-(6-fluoro-1H-indol-3-yl)pyridin-2-yl)amino)ethyl)acetamide] | 850 | – | – |
| Cc1ncccc1-c1c[nH]c2cc(F)ccc12 [Example 45, 6-fluoro-3-(2-methylpyridin-3-yl)-1H-indole] | 220 | 860 | – |
| Nc1ccc(-c2c[nH]c3cc(F)ccc23)cn1 [Example 15, 5-(6-fluoro-1H-indol-3-yl)pyridin-2-amine] | 130 | 1100 | – |
| CC(=O)NCCNc1ccc(-c2c[nH]c3cc(F)ccc23)cn1 [Example 50, N-(2-((5-(6-fluoro-1H-indol-3-yl)pyridin-2-yl)amino)ethyl)acetamide] | 1000 | – | – |
| CS(=O)(=O)N1CCC(C(=O)Nc2ccc(-c3c[nH]c4cc(F)ccc34)cn2)CC1 [Example 61, N-(5-(6-fluoro-1H-indol-3-yl)pyridin-2-yl)-1-(methylsulfonyl)piperidine-4-carboxamide] | 170 | – | 990 |
| CS(=O)(=O)N1CCC(Nc2ccc(-c3c[nH]c4cc(F)ccc34)cn2)CC1 [Example 19, 5-(6-fluoro-1H-indol-3-yl)-N-(1-(methylsulfonyl)piperidin-4-yl)pyridin-2-amine] | – | 650 | – |
| NCCS(=O)(=O)NC1CCN(c2ccc(-c3c[nH]c4cc(F)ccc34)cn2)CC1 [Example 55, 2-amino-N-(1-(5-(6-fluoro-1H-indol-3-yl)pyridin-2-yl)piperidin-4-yl)ethanesulfonamide] | 290 | – | 990 |
| Cc1ccc(-c2c[nH]c3cc(F)ccc23)cn1 [Example 1, 6-fluoro-3-(6-methylpyridin-3-yl)-1H-indole] | 180 | 370 | – |
| NCC(=O)N1CCN(c2ccc(-c3c[nH]c4cc(F)ccc34)cn2)CC1 [Example 11, 2-amino-1-(4-(5-(6-fluoro-1H-indol-3-yl)pyridin-2-yl)piperazin-1-yl)ethanone] | 650 | 650 | – |
| O=C(Nc1ccc(-c2c[nH]c3cc(F)ccc23)cn1)C1CCNCC1 [Example 35, N-(5-(6-fluoro-1H-indol-3-yl)pyridin-2-yl)piperidine-4-carboxamide] | 250 | – | 530 |
| Fc1ccc2c(-c3ccc(NC4CCNCC4)nc3)c[nH]c2c1 [Example 17, 5-(6-fluoro-1H-indol-3-yl)-N-(piperidin-4-yl)pyridin-2-amine] | 1300 | 870 | – |
| CN(C)CCNc1ccc(-c2c[nH]c3cc(F)ccc23)cn1 [Example 25, N^1-(5-(6-fluoro-1H-indol-3-yl)pyridin-2-yl)-N^2,N^2-dimethylethane-1,2-diamine] | 140 | 540 | – |
| O=C(Nc1ccc(-c2c[nH]c3cc(F)ccc23)cn1)C1CC1 [Example 52, N-(5-(6-fluoro-1H-indol-3-yl)pyridin-2-yl)cyclopropanecarboxamide] | 120 | – | – |
| CN(C)CCS(=O)(=O)NC1CCN(c2ccc(-c3c[nH]c4cc(F)ccc34)cn2)CC1 [Example 56, 2-(dimethylamino)-N-(1-(5-(6-fluoro-1H-indol-3-yl)pyridin-2-yl)piperidin-4-yl)ethanesulfonamide] | 240 | – | 640 |
| C[C@H](N)C(=O)Nc1ccc(-c2c[nH]c3cc(F)ccc23)cn1 [Example 37, (S)-2-amino-N-(5-(6-fluoro-1H-indol-3-yl)pyridin-2-yl)propanamide] | 450 | – | – |

| SMILES | IC50 (human TDO2 [1]) [nM] | IC50 (human TDO2 [2]) [nM] | IC50 (human TDO2 [3]) [nM] |
| --- | --- | --- | --- |
| O=c1ccc(-c2c[nH]c3cc(F)ccc23)c[nH]1 [Example 69, 5-(6-fluoro-1H-indol-3-yl)pyridin-2(1H)-one] | 260 | – | 370 |
| NS(=O)(=O)CCNc1ccc(-c2c[nH]c3cc(F)ccc23)cn1 [Example 29, 2-((5-(6-fluoro-1H-indol-3-yl)pyridin-2-yl)amino)ethanesulfonamide] | 240 | – | – |
| CN1CCC(Oc2ccc(-c3c[nH]c4cc(F)ccc34)cn2)CC1 [Example 3, 6-fluoro-3-(6-(1-methylpiperidin-4-yloxy)pyridin-3-yl)-1H-indole] | – | 1200 | – |
| COc1ccc(-c2c[nH]c3cc(F)ccc23)cn1 [Example 5, 6-fluoro-3-(6-methoxypyridin-3-yl)-1H-indole] | 120 | 730 | – |
| Nc1ccc(-c2c[nH]c3cc(F)c(F)cc23)cn1 [Example 16, 5-(5,6-difluoro-1H-indol-3-yl)pyridin-2-amine] | – | 1600 | – |
| CS(=O)(=O)NCCNc1ccc(-c2c[nH]c3cc(F)ccc23)cn1 [Example 26, N-(2-(5-(6-fluoro-1H-indol-3-yl)pyridin-2-ylamino)ethyl)methanesulfonamide hydrochloride] | – | 710 | – |
| CN1CCN(c2ccc(-c3c[nH]c4cc(F)ccc34)cn2)CC1 [Example 10, 6-fluoro-3-(6-(4-methylpiperazin-1-yl)pyridin-3-yl)-1H-indole] | 130 | 720 | – |
| CN(c1ccc(-c2c[nH]c3cc(F)ccc23)cn1)S(C)(=O)=O [Example 54, N-(5-(6-fluoro-1H-indol-3-yl)pyridin-2-yl)-N-methylmethanesulfonamide] | 160 | – | 420 |
| O=C1NCCN1c1ccc(-c2c[nH]c3cc(F)ccc23)cn1 [Example 78, 1-(5-(6-fluoro-1H-indol-3-yl)pyridin-2-yl)imidazolidin-2-one] | – | 16000 | 490 |
| [O-][n+]1cccc(-c2c[nH]c3cc(F)ccc23)c1 [Example 49, 3-(6-fluoro-1H-indol-3-yl)pyridine 1-oxide] | – | 11000 | – |
| CCN1CCC(Nc2ccc(-c3c[nH]c4cc(F)ccc34)cn2)CC1 [Example 18, N-(1-ethylpiperidin-4-yl)-5-(6-fluoro-1H-indol-3-yl)pyridin-2-amine] | – | 4800 | – |
| NS(=O)(=O)CCCNc1ccc(-c2c[nH]c3cc(F)ccc23)cn1 [Example 23, 3-((5-(6-fluoro-1H-indol-3-yl)pyridin-2-yl)amino)propane-1-sulfonamide] | 430 | – | 490 |
| CS(=O)(=O)N1CCC(Oc2ccc(-c3c[nH]c4cc(F)ccc34)cn2)CC1 [Example 6, 6-fluoro-3-(6-(1-(methylsulfonyl)piperidin-4-yloxy)pyridin-3-yl)-1H-indole] | – | 1300 | – |
| Fc1ccc2c(-c3ccc(OC4CCNCC4)nc3)c[nH]c2c1 [Example 2, 6-fluoro-3-(6-(piperidin-4-yloxy)pyridin-3-yl)-1H-indole] | – | 560 | – |
| CC(=O)N(C)c1ccc(-c2c[nH]c3cc(F)ccc23)cn1 [Example 8, N-(5-(6-fluoro-1H-indol-3-yl)pyridin-2-yl)-N-methylacetamide] | 490 | – | – |
| CC(=O)NCCCNc1ccc(-c2c[nH]c3cc(F)ccc23)cn1 [Example 20, N-(3-(5-(6-fluoro-1H-indol-3-yl)pyridin-2-ylamino)propyl)acetamide] | – | 870 | – |
| Cn1cc(-c2c[nH]c3cc(F)ccc23)ccc1=O [Example 68, 5-(6-fluoro-1H-indol-3-yl)-1-methylpyridin-2(1H)-one] | – | – | 480 |
